Consider 22 compounds from patent EP4782445A1, “CDK KINASE INHIBITOR AND USE THEREOF” (Abbisko Therapeutics Co., Ltd., priority 2023, dated 2025).

One test concerns the target T1, CDK2/cyclin E1 (Homo sapiens, UniProt P24941).
T1 construct: purchased Carna
Kind of test: In vitro biochemical kinase activity assay for CDK2/cyclin E1 (HTRF). The following applies: 1 µM ATP. On the procedure: I. In Vitro Biochemical Kinase Activity Assay for CDK2/Cyclin E1
The inhibitory effects of the compounds of the present invention on CDK2/cyclin E1 kinase activity were determined using a homogeneous time-resolved fluorescence (HTRF) assay. The experimental process was as follows: • 1. The kinase reaction was carried out in a 384-well plate. 15 nM CDK2/cyclin E1 kinase (Carna), 1 µM ATP, and 1 µM biotin-labeled substrate protein ATF2-biotin (Cisbio) were incubated at room temperature for 90 min in a buffer system composed of 10 mM MgCl2, 1 mM MnCl2, 1 mM DTT, and basal kinase buffer (Cisbio). • 2. The detection solution (Cisbio, containing reagents that specifically recognize phosphorylated ATF2 and ATF2-biotin proteins, respectively) was added. The plate was then sealed with a film (to protect from light and volatilization) and incubated at 25°C for 60 min. • 3. The plate was transferred to an Envision plate reader to detect fluorescence resonance energy transfer (FRET) signals. (The 665/615 ratio was calculated by reading the emission at 665 nm and 615 nM, respectively.) • 4. The IC50 values were determined by analyzing the inhibition at varying compound concentrations using Model 205 in the XLfit software.

Another test concerns the target T2, CDK4/cyclin D3 (Homo sapiens, UniProt P11802).
T2 construct: purchased Carna
The test is described as follows: In vitro biochemical kinase activity assay for CDK4/cyclin D3 (HTRF). The method, boiled down: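 HTRF kinase reaction: 4.9 nM CDK4/cyclin D3, 1 mM (or 80 µM) ATP and 0.3 µM Rb-biotin substrate, 90 min at 30°C in buffer with 50 mM MgCl2 and 1 mM DTT.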

For the next test, the target named is T3, CDK6/cyclin D3 (Homo sapiens, UniProt Q00534).
T3 construct: purchased Carna
The test is described as follows: In vitro biochemical kinase activity assay for CDK6/cyclin D3 (HTRF). The method, boiled down:
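HTRF assay: 0.02 nM CDK6/cyclin D3 incubated with 1 mM (or 100 µM) ATP and 0.3 µM Rb-biotin substrate at 30°C for 60 min in kinase buffer with 5 mM MgCl2 and 1 mM DTT.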
Background: Time-resolved FRET reads energy transfer from a long-lived donor to a nearby acceptor.

The mark [1] stands for this setting: unmarked data: 80 µM ATP in Step 1.
Setting [2] is: unmarked data: 100 µM ATP in Step 1.
The mark [3] stands for this setting: data marked with *: 1 mM ATP in Step 1.

T3 sequence (Q00534 whole entry): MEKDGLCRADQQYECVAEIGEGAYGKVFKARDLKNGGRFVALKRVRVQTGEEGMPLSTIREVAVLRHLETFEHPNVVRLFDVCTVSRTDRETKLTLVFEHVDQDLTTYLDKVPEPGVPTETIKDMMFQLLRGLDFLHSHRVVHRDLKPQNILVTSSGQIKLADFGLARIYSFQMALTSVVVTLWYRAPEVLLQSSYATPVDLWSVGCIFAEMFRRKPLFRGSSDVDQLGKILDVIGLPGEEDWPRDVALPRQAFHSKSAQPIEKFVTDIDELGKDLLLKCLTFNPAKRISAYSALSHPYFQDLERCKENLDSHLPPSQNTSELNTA
T3 sequence (P30281 whole entry partner): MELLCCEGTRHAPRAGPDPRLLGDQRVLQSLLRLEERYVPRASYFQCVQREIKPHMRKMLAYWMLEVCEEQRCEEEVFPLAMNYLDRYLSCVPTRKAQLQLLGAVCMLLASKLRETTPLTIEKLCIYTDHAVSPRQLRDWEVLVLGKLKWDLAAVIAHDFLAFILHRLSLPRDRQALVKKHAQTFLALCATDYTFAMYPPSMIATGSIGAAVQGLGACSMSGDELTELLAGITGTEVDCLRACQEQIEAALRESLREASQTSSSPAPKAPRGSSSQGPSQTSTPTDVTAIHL
T2 sequence (P11802 whole entry): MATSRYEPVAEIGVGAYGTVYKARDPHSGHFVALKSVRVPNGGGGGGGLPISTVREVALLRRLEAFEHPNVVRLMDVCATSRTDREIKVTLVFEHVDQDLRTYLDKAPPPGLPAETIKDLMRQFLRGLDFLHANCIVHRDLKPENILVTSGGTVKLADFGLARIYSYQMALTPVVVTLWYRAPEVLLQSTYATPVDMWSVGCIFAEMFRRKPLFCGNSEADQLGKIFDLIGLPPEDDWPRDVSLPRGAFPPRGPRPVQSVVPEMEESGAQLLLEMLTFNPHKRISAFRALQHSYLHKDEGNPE
T2 sequence (P30281 whole entry partner): as the sequence (P30281 whole entry partner) above

As to `CC(=O)c1ncc(C#Cc2nc(N[C@@H]3CCOC[C@H]3O)ncc2Cl)n1C(C)C` [Example 1, 1-(5-((5-chloro-2-(((3S,4R)-3-hydroxytetrahydro-2H-pyran-4-yl)amino)pyrimidin-4-yl)ethynyl)-1-isopropyl-1H-imidazol-2-yl)ethan-1-one], the IC50 (usually the concentration at which inhibition is half-maximal) against CDK2/cyclin E1 turned out to be 3630 nM; against CDK4/cyclin D3 (setting [1]) it was 6.2 nM; at CDK6/cyclin D3 (setting [2]), 24.2 nM.

With `CC(C)n1c(C#Cc2nc(N[C@@H]3CCOC[C@H]3O)ncc2Cl)cnc1C(C)(C)O` [Example 2, (3S,4R)-4-((5-chloro-4-((2-(2-hydroxypropan-2-yl)-1-isopropyl-1H-imidazol-5-yl)ethynyl)pyrimidin-2-yl)amino)tetrahydro-2H-pyran-3-ol], at CDK2/cyclin E1, the IC50 was determined as 1320 nM. In other words, the single-digit micromolar range.

At CDK2/cyclin E1, `CC(C)n1c(C#Cc2nc(N[C@H]3CCOC[C@@H]3O)ncc2Cl)cnc1C(C)(C)O` [Example 3, (3R,4S)-4-((5-chloro-4-((2-(2-hydroxypropan-2-yl)-1-isopropyl-1H-imidazol-5-yl)ethynyl)pyrimidin-2-yl)amino)tetrahydro-2H-pyran-3-ol] gave a half-inhibitory concentration (IC50) of 467 nM.

In the case of `CC(C)n1c(C#Cc2nc(N[C@@H]3CCN(S(C)(=O)=O)C[C@H]3O)ncc2Cl)cnc1C(C)(C)O` [Example 24, (3R,4R)-4-((5-chloro-4-((2-(2-hydroxypropan-2-yl)-1-isopropyl-1H-imidazol-5-yl)ethynyl)pyrimidin-2-yl)amino)-1-(methanesulfonyl)piperidin-3-ol], the values for the half-inhibitory concentration (IC50) on CDK2/cyclin E1, at CDK4/cyclin D3 (setting [1]) and on CDK6/cyclin D3 (setting [2]) were 236 nM, 0.56 nM and 3.04 nM, respectively.

As to `CC(C)n1c(C#Cc2nc(N[C@@H]3CCOC[C@H]3O)ncc2Cl)cnc1[C@H](C)O` [Example 30, (3 S,4R)-4-((5-chloro-4-((2-((S)-1-hydroxyethyl)-1-isopropyl-1H-imidazol-5-yl)ethynyl)pyrimidin-2-yl)amino)tetrahydro-2H-pyran-3-ol], the IC50 was found to be 125 nM on CDK2/cyclin E1, 1.14 nM on CDK4/cyclin D3 (setting [1]) and 11.4 nM at CDK6/cyclin D3 (setting [2]).

Regarding `CCN1CCN(Cc2ccc(Nc3ncc(Cl)c(C#Cc4cnc(C(C)O)n4C(C)C)n3)nc2)CC1` (stereo not drawn) [Example 122, 1-(5-((5-chloro-2-((5-((4-ethylpiperazin-1-yl)methyl)pyridin-2-yl)amino)pyrimidin-4-yl)ethynyl)-1-isopropyl-1H-imidazol-2-yl)ethan-1-ol], the IC50 against CDK4/cyclin D3 (setting [3]) stood at 2.07 nM; on CDK6/cyclin D3 (setting [3]), 7.84 nM.

Consider `CC(C)n1c(C#Cc2nc(N[C@@H]3CCOC[C@H]3O)ncc2Cl)cnc1[C@@H](C)N1CCC[C@H](O)C1` [Example 123, (S)-1-((R)-1-(5-((5-chloro-2-(((3 S,4R)-3-hydroxytetrahydro-2H-pyran-4-yl)amino)pyrimidin-4-yl)ethynyl)-1-isopropyl-1H-imidazol-2-yl)ethyl)piperidin-3-ol], for which the IC50 against CDK4/cyclin D3 (setting [3]) was 36.9 nM; at CDK6/cyclin D3 (setting [3]), 545 nM.

In the case of `CC(C)n1c(C#Cc2nc(N[C@@H]3CCOC[C@H]3O)ncc2Cl)cnc1[C@H](C)N1CCC[C@H](O)C1` [Example 124, (S)-1-((S)-1-(5-((5-chloro-2-(((3 S,4R)-3-hydroxytetrahydro-2H-pyran-4-yl)amino)pyrimidin-4-yl)ethynyl)-1-isopropyl-1H-imidazol-2-yl)ethyl)piperidin-3-ol], the results for the half-inhibitory concentration (IC50) at CDK4/cyclin D3 (setting [3]) and against CDK6/cyclin D3 (setting [3]) were 182 nM and 1160 nM, respectively.

On to `CC(C)n1c(C#Cc2nc(N[C@@H]3CCOC[C@H]3O)ncc2Cl)cnc1C(C)(O)C1CC1` (stereo partly drawn) [Example 125, (3 S,4R)-4-((5-chloro-4-((2-(1-cyclopropyl-1-hydroxyethyl)-1-isopropyl-1H-imidazol-5-yl)ethynyl)pyrimidin-2-yl)amino)tetrahydro-2H-pyran-3-ol], for which the IC50 at CDK4/cyclin D3 (setting [3]) was found to be 11.6 nM; against CDK6/cyclin D3 (setting [3]), 65.4 nM.

For the compound `CC(C)n1c(C#Cc2nc(N[C@@H]3CCOC[C@H]3O)ncc2Cl)cnc1N1CCOC1=O` [Example 126, 3-(5-((5-chloro-2-(((3S,4R)-3-hydroxytetrahydro-2H-pyran-4-yl)amino)pyrimidin-4-yl)ethynyl)-1-isopropyl-1H-imidazol-2-yl)oxazolidin-2-one], the IC50 against CDK4/cyclin D3 (setting [3]) is 17 nM; against CDK6/cyclin D3 (setting [3]), 75.8 nM.

On to `Cn1ncc(C#Cc2nc(N[C@@H]3CCOC[C@H]3O)ncc2Cl)c1C(C)(C)C` [Example 127, (3 S,4R)-4-((4-((5-(tert-butyl)-1-methyl-1H-pyrazol-4-yl)ethynyl)-5-chloropyrimidin-2-yl)amino)tetrahydro-2H-pyran-3-ol], for which the 50% inhibitory concentration (IC50) on CDK4/cyclin D3 (setting [3]) was 137 nM; on CDK6/cyclin D3 (setting [3]), 455 nM.

On to `CC(C)c1c(C#Cc2nc(N[C@@H]3CCOC[C@H]3O)ncc2Cl)cnn1CC(F)F` [Example 128, (3 S,4R)-4-((5-chloro-4-((1-(2,2-difluoroethyl)-5-isopropyl-1H-pyrazol-4-yl)ethynyl)pyrimidin-2-yl)amino)tetrahydro-2H-pyran-3-ol], for which the values for the half-inhibitory concentration (IC50) on CDK4/cyclin D3 (setting [3]) and against CDK6/cyclin D3 (setting [3]) were 53.3 nM and 254 nM, respectively.

For `CC(C)n1c(C#Cc2nc(N[C@@H]3CCN(S(C)(=O)=O)C[C@H]3O)ncc2Cl)cnc1CN1CCC[C@H](O)C1` [Example 129, (3R,4R)-4-((5-chloro-4-((2-(((S)-3-hydroxypiperidin-1-yl)methyl)-1-isopropyl-1H-imidazol-5-yl)ethynyl)pyrimidin-2-yl)amino)-1-(methanesulfonyl)piperidin-3-ol], the IC50 is 1.48 nM against CDK4/cyclin D3 (setting [3]) and 21 nM at CDK6/cyclin D3 (setting [3]).

Regarding `CN(C)c1c(C#Cc2nc(N[C@@H]3CCOC[C@H]3O)ncc2Cl)cnn1C` [Example 130, (3 S,4R)-4-((5-chloro-4-((5-(dimethylamino)-1-methyl-1H-pyrazol-4-yl)ethynyl)pyrimidin-2-yl)amino)tetrahydro-2H-pyran-3-ol], the IC50 is 23.5 nM against CDK4/cyclin D3 (setting [3]) and 222 nM at CDK6/cyclin D3 (setting [3]).

For `CC(C)n1c(C#Cc2nc(N[C@@H]3CCOC[C@H]3O)ncc2Cl)cnc1CC1(N)CCCC1` [Example 131, (3S,4R)-4-((4-((2-((1-aminocyclopentyl)methyl)-1-isopropyl-1H-imidazol-5-yl)ethynyl)-5-chloropyrimidin-2-yl)amino)tetrahydro-2H-pyran-3-ol], the IC50 against CDK4/cyclin D3 (setting [3]) was 23.2 nM; on CDK6/cyclin D3 (setting [3]), 684 nM.

Take `CC1CCOc2ncc(C#Cc3nc(N[C@@H]4CCOC[C@H]4O)ncc3Cl)n21` (stereo partly drawn) [Example 132, (3 S,4R)-4-((5-chloro-4-((5-methyl-6,7-dihydro-5H-imidazo[2,1-o][1,3]oxazin-3-yl)ethynyl)pyrimidin-2-yl)amino)tetrahydro-2H-pyran-3-ol]: the half-inhibitory concentration (IC50) against CDK4/cyclin D3 (setting [3]) came out at 93.7 nM; at CDK6/cyclin D3 (setting [3]) it was 243 nM.

On to `CC1CCN(C)c2ncc(C#Cc3nc(N[C@@H]4CCOC[C@H]4O)ncc3Cl)n21` (stereo partly drawn) [Example 135, (3 S,4R)-4-((5-chloro-4-((5,8-dimethyl-5,6,7,8-tetrahydroimidazo[1,2-a]pyrimidin-3-yl)ethynyl)pyrimidin-2-yl)amino)tetrahydro-2H-pyran-3-ol], for which the IC50 was determined as 177 nM on CDK4/cyclin D3 (setting [3]) and 275 nM at CDK6/cyclin D3 (setting [3]).

For `CC(C)(C)n1cncc1C#Cc1nc(N[C@@H]2CCOC[C@H]2O)ncc1Cl` [Example 136, (3S,4R)-4-((4-((1-(tert-butyl)-1H-imidazol-5-yl)ethynyl)-5-chloropyrimidin-2-yl)amino)tetrahydro-2H-pyran-3-ol], the figures for the IC50 on CDK4/cyclin D3 (setting [1]) and on CDK6/cyclin D3 (setting [2]) were 10.3 nM and 39.3 nM, respectively.

Turning to `[2H]C([2H])(c1ncc(C#Cc2nc(Nc3ccc(CN4CCN(CC)CC4)cn3)ncc2Cl)n1C(C)C)N1CCC[C@H](O)C1` [Example 137, (S)-1-((5-((5-chloro-2-((5-((4-ethylpiperazin-1-yl)methyl)pyridin-2-yl)amino)pyrimidin-4-yl)ethynyl)-1-isopropyl-1H-imidazol-2-yl)methyl-d2)piperidin-3-ol], the IC50 against CDK4/cyclin D3 (setting [3]) was 3.17 nM; against CDK6/cyclin D3 (setting [3]) it was 53 nM.

As for `[2H]C(C)(O)c1ncc(C#Cc2nc(N[C@@H]3CCOC[C@H]3O)ncc2Cl)n1C(C)C` (stereo partly drawn) [Example 138, (3 S,4R)-4-((S-chloro-4-((2-(1-hydroxyethyl-1-d)-1-isopropyl-1H-imidazol-5-yl)ethynyl)pyrimidin-2-yl)amino)tetrahydro-2H-pyran-3-ol], the IC50 at CDK4/cyclin D3 (setting [3]) was 5.92 nM; on CDK6/cyclin D3 (setting [3]) it was 38.4 nM.

Regarding “(3 S,4R)-4-((5-chloro-4-((1-(1, 1-difluoropropan-2-yl)-1H-imidazol-5-yl)ethynyl)pyrimidin-2-yl)amino)tetrahydro-2H-pyran-3-ol [Example 134]”, the 50% inhibitory concentration (IC50) on CDK4/cyclin D3 (setting [3]) is 36.1 nM; on CDK6/cyclin D3 (setting [3]) it was 230 nM.

With “(3S,4R)-4-((5-chloro-4-((1-(1, 1-difluoropropan-2-yl)-2-(2-hydroxypropan-2-yl)-1H-imidazol-5-yl)ethynyl)pyrimidin-2-yl)amino)tetrahydro-2H-pyran-3-ol [Example 133]”, the IC50 at CDK4/cyclin D3 (setting [3]) is 260 nM; against CDK6/cyclin D3 (setting [3]), 1140 nM.
